Assays:
[1] = Oral bioavailability in Wistar Han rat at 3 mg/kg; format: ADME, organism-based; conditions: in vivo
[2] = AUCN in Wistar Han rat at 3 mg/kg, po; format: ADME, organism-based; conditions: in vivo
[3] = AUC (0 to 24 hrs) in rat brain at 10 mg/kg, po measured upto 24 hrs; format: ADME, organism-based; set-up: dose 10 mg/kg, time < 24 hr, route oral; conditions: in vivo
Rattus norvegicus [4] = assay: Increase in O-protein AUC in rat brain at 10 mg/kg, po measured upto 24 hrs; format: ADME, organism-based; conditions: in vivo
Rattus norvegicus [5] = assay: Elevation of O-protein in rat brain at 10 mg/kg, po measured after 24 hrs; format: functional
[6] = Half life in Wistar Han rat at 2 mg/kg, iv; format: ADME, organism-based; conditions: in vivo
MDR1 = assay: Apparent permeability in pig LLC-PK1 cells transfected with MDR1; format: ADME, cell-based, Sus scrofa
[7] = Fraction unbound in Wistar Han rat plasma at 2.5 uM by equilibrium dialysis; format: ADME, cell-free
[8] = Tmax in rat brain at 10 mg/kg, po measured upto 24 hrs; format: ADME, organism-based
[9] = Drug uptake in rat brain at 3 mg/kg, po measured after 8 hrs; format: ADME, organism-based; conditions: in vivo
[10] = target: T1, Beta-hexosaminidase subunit beta (Homo sapiens, UniProt P07686); assay: Inhibition of human beta hexosaminidase assessed as inhibitory constant using 4-methylumbelliferyl N-acetyl-beta-D-glucosaminide dihydrate as substrate measured every 60 sec for 45 mins by fluorescence spectrophotometry
T1 sequence (P07686 whole entry): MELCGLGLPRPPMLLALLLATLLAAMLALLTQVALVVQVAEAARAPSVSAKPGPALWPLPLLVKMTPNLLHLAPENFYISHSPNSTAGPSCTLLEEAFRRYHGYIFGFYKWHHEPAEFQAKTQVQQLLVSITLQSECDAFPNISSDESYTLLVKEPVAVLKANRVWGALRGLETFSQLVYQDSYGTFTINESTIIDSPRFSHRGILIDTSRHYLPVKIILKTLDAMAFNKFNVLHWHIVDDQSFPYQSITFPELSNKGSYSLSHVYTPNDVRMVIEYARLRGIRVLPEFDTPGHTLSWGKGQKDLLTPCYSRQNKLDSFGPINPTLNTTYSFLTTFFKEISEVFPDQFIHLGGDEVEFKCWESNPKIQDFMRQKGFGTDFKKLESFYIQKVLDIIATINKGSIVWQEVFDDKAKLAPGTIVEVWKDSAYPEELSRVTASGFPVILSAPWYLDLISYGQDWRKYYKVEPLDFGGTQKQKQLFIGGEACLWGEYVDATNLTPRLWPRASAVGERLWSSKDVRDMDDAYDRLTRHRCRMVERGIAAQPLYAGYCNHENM

Rattus norvegicus [11] = assay: Elevation of O-protein in rat brain at 3 mg/kg, po measured after 8 hrs relative to control; format: functional
[12] = Fraction unbound in human plasma at 2.5 uM by equilibrium dialysis; format: ADME, cell-free
[13] = Ratio of drug uptake in rat brain to plasma at 3 mg/kg, po measured after 8 hrs; format: ADME, organism-based; conditions: read-out: BPR
[14] = Volume of distribution at steady state in Wistar Han rat at 2 mg/kg, iv or 3 mg/kg, po; format: ADME, organism-based; conditions: in vivo, read-out: Vdss
[15] = Clearance in Wistar Han rat at 2 mg/kg, iv; format: ADME, organism-based; conditions: in vivo
[16] = Volume of distribution at steady state in Wistar Han rat at 1 mg/kg, iv or 3 mg/kg, po; format: ADME, organism-based; conditions: in vivo, read-out: Vdss
[17] = Half life in Wistar Han rat at 1 mg/kg, iv; format: ADME, organism-based; conditions: in vivo
[18] = Clearance in Wistar Han rat at 1 mg/kg, iv; format: ADME, organism-based; conditions: in vivo
Protein O-GlcNAcase [19] = target: T2, Protein O-GlcNAcase (Homo sapiens, UniProt O60502); assay: Inhibition of recombinant human OGA
T2 sequence (O60502 whole entry): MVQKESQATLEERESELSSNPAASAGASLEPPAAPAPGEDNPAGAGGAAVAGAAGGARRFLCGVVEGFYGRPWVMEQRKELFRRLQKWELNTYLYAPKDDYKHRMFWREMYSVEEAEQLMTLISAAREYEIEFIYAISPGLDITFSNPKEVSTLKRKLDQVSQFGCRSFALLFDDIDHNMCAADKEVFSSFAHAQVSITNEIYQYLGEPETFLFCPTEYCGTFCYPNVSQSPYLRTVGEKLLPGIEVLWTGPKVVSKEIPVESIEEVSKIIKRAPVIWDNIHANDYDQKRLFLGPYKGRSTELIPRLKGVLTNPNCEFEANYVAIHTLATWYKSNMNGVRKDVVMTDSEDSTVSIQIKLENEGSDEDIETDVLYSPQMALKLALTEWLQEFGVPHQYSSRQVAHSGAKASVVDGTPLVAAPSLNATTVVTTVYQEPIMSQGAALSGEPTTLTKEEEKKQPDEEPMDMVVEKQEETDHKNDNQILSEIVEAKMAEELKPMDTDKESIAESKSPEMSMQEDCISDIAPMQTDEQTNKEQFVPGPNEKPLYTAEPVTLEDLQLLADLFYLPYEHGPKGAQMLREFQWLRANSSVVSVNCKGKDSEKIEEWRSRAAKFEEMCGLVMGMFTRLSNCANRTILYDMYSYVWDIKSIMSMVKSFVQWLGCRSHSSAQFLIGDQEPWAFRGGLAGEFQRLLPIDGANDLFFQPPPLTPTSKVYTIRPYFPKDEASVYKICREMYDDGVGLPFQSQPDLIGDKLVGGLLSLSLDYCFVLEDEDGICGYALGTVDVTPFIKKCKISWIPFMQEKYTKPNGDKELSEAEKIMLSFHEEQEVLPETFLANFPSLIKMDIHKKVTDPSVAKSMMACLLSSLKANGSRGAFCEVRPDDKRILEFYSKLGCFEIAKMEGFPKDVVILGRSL

Protein O-GlcNAcase [20] = target: T3, Protein O-GlcNAcase (Rattus norvegicus, UniProt Q8VIJ5); assay: Inhibition of OGA in rat PC12 cells assessed as OGlcNAcylated protein level incubated for 24 hrs by ELISA; format: cell-based
T3 sequence (Q8VIJ5 whole entry): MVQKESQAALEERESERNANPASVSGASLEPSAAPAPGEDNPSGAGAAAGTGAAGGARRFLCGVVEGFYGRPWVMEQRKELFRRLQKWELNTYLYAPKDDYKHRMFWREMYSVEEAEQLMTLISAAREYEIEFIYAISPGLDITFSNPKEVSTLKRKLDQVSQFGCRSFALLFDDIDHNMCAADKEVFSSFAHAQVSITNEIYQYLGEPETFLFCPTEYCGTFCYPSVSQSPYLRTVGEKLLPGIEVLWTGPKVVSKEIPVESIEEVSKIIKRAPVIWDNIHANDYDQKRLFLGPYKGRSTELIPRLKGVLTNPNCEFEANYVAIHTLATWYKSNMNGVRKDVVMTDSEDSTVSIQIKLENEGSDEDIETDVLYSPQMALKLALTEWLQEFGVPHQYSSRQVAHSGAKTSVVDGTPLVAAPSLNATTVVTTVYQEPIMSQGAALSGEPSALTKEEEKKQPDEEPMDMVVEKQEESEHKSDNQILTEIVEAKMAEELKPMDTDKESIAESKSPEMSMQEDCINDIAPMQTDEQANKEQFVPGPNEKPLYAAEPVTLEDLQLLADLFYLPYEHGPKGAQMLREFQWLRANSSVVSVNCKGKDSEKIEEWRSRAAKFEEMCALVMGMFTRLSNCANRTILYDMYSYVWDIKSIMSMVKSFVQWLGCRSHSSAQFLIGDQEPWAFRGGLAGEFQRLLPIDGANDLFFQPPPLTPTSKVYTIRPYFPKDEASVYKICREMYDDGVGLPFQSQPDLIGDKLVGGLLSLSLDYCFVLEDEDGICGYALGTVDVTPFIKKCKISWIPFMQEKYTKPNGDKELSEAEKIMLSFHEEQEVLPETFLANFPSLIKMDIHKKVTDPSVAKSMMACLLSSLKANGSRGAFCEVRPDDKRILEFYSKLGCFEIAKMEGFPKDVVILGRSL

[21] = target: Voltage-dependent L-type calcium channel subunit alpha-1C (Homo sapiens, UniProt Q13936); assay: Inhibition of Cav1.2 (unknown origin)
Cytochrome P450 2D6 = Cytochrome P450 2D6 (Homo sapiens, UniProt P10635); assay: Inhibition of CYP2D6 (unknown origin); format: ADME
[22] = target: Voltage-gated inwardly rectifying potassium channel KCNH2 (Homo sapiens, UniProt Q12809); assay: Displacement of MK-0499 from human ERG
Cytochrome P450 2C9 = Cytochrome P450 2C9 (Homo sapiens, UniProt P11712); assay: Inhibition of CYP2C9 (unknown origin); format: ADME
[23] = target: Sodium channel protein type 5 subunit alpha (Homo sapiens, UniProt Q14524); assay: Inhibition of Nav1.5 (unknown origin)
Cytochrome P450 3A4 = Cytochrome P450 3A4 (Homo sapiens, UniProt P08684); assay: Inhibition of CYP3A4 (unknown origin); format: ADME
[24] = target: T4, Nuclear receptor subfamily 1 group I member 2 (Homo sapiens, UniProt O75469); assay: Activation of PXR (unknown origin) assessed as CYP3A4 induction
T4 sequence (O75469 whole entry): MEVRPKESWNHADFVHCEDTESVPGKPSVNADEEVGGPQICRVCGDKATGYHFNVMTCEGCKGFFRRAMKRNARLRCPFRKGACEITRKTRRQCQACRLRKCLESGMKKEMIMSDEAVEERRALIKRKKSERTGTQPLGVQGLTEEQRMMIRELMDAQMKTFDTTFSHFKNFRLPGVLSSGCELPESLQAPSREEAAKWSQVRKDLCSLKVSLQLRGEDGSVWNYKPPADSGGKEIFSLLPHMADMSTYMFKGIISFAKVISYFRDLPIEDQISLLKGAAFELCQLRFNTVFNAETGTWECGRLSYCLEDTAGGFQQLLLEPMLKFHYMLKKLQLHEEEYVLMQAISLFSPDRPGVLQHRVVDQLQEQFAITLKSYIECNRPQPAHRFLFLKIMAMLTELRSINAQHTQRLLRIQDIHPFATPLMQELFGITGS

[25] = Drug uptake in rat brain at 3 mg/kg, po measured after 24 hrs; format: ADME, organism-based; conditions: in vivo
Rattus norvegicus [26] = assay: Elevation of O-protein in rat brain at 3 mg/kg, po measured after 24 hrs relative to control; format: functional
[27] = Ratio of drug uptake in rat brain to plasma at 3 mg/kg, po measured after 24 hrs; format: ADME, organism-based; conditions: read-out: BPR

Sequence of Cytochrome P450 2C9 (P11712 whole entry): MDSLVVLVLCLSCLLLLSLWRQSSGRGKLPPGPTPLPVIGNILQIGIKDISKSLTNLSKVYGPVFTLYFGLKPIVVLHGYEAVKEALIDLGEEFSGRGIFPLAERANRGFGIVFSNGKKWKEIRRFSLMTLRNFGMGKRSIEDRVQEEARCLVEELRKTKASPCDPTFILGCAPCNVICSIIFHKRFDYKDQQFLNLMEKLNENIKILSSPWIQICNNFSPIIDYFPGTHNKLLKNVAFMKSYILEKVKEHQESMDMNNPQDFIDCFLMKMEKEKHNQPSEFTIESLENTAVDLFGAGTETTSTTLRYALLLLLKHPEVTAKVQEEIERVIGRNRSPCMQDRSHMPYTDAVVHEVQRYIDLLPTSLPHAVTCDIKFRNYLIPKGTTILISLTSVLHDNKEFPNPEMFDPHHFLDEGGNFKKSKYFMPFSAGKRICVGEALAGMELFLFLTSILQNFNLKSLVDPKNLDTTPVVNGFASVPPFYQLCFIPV
Sequence of Voltage-gated inwardly rectifying potassium channel KCNH2 (Q12809 whole entry): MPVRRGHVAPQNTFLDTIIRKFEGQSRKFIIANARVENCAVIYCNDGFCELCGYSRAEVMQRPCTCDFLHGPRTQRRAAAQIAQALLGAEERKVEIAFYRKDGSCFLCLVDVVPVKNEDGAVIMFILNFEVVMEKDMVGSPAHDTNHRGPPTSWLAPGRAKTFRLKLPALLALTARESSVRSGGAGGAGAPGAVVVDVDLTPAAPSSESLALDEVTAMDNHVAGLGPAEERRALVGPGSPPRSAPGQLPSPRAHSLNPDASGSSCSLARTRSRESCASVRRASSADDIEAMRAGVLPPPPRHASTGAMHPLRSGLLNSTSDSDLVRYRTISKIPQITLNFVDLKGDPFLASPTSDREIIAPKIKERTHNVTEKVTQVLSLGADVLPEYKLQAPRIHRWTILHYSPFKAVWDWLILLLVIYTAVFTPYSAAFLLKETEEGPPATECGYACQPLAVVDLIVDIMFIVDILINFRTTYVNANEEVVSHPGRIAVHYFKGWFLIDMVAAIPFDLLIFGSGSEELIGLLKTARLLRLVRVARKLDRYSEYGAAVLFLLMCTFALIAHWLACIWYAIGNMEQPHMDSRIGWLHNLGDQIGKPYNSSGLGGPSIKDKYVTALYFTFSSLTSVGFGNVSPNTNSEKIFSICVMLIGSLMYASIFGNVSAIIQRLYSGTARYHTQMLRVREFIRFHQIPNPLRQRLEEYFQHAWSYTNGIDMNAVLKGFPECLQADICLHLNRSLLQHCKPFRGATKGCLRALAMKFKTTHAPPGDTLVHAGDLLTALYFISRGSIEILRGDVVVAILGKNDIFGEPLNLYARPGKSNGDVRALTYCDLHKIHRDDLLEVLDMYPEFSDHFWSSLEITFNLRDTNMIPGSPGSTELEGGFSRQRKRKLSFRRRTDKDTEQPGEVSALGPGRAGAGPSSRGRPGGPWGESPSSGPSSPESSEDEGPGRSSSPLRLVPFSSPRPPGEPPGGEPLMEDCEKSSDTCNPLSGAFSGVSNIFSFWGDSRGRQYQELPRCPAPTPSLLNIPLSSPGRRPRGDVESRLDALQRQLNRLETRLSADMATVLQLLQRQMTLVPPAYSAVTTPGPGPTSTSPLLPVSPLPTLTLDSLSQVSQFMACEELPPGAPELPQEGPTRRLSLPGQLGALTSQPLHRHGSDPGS
Sequence of Sodium channel protein type 5 subunit alpha (Q14524 whole entry): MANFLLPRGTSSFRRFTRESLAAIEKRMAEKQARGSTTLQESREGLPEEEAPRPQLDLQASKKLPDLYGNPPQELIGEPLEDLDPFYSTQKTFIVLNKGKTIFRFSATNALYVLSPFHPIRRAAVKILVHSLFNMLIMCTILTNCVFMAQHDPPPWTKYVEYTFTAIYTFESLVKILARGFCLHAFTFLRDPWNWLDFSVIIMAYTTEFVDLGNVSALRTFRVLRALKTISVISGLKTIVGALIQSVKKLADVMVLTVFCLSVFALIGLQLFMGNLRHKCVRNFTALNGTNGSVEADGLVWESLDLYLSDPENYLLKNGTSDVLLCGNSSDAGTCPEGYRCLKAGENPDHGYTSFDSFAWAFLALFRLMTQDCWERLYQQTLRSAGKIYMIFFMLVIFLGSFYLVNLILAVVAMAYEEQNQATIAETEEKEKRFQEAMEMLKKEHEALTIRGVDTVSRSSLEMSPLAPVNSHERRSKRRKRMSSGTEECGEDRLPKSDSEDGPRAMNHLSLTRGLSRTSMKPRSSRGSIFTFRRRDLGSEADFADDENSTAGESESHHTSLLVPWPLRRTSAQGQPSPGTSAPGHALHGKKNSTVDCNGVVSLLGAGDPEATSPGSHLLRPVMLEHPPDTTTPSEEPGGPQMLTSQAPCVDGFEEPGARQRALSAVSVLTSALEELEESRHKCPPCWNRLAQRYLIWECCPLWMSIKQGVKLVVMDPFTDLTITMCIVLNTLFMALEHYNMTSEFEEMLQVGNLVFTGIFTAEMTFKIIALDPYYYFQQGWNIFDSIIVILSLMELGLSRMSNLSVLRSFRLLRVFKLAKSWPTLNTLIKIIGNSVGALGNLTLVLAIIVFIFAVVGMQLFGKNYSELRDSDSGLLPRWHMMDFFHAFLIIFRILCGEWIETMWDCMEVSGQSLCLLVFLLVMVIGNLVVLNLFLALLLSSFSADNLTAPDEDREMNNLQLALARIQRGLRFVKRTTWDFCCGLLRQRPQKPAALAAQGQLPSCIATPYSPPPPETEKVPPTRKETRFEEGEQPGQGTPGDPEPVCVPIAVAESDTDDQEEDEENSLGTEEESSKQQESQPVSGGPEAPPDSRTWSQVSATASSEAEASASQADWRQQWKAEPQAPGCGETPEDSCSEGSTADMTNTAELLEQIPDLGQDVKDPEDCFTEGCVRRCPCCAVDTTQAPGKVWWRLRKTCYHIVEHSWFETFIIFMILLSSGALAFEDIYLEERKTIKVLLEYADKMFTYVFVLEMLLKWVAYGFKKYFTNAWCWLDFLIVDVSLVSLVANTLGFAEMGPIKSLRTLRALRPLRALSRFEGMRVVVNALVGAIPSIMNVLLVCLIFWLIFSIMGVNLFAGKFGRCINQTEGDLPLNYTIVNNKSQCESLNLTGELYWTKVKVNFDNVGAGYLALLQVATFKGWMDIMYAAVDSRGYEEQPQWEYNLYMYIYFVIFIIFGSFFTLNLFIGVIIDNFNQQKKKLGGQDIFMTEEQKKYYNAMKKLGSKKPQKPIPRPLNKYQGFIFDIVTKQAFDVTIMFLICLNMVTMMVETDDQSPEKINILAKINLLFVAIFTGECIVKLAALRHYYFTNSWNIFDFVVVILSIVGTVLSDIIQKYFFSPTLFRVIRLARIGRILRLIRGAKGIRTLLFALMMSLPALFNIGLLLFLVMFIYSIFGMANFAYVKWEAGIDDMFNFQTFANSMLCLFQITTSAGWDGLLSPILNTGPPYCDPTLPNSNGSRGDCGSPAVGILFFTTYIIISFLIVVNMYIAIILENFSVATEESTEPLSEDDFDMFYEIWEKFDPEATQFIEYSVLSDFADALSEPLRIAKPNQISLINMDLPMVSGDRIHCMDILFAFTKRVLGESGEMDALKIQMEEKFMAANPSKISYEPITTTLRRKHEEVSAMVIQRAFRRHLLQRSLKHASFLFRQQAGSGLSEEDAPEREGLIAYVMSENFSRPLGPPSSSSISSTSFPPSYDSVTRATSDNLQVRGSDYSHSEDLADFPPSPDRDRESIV
Sequence of Cytochrome P450 3A4 (P08684 whole entry): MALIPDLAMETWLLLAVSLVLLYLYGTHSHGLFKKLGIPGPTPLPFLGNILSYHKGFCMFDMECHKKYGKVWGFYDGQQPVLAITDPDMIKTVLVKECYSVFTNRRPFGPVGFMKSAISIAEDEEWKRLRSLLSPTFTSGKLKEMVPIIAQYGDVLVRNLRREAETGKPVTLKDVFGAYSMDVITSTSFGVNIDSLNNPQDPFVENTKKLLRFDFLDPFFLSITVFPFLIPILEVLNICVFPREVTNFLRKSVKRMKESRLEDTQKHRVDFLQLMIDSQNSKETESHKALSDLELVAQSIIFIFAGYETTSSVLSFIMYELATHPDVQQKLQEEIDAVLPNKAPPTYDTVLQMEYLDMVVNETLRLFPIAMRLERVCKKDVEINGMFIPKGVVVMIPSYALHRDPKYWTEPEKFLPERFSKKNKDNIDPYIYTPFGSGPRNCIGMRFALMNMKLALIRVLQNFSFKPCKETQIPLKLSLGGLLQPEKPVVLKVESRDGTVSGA
Sequence of Cytochrome P450 2D6 (P10635 whole entry): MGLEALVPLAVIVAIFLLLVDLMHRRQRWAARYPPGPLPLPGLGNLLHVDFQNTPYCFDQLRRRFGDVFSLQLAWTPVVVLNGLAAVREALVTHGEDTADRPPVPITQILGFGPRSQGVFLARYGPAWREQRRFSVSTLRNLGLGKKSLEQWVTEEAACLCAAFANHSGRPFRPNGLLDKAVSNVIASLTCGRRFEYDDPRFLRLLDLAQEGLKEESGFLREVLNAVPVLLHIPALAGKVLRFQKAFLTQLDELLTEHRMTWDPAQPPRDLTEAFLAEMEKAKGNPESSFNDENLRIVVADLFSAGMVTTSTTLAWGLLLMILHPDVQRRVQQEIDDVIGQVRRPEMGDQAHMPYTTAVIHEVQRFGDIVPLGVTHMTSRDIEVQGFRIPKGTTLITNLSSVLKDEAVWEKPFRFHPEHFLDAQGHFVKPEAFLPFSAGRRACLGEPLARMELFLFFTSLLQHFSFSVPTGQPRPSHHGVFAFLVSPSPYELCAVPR

Row | SMILES | bioavailability [1] [%] | AUC/dose [2] [µM·kg·h/mg] | half-life [6] [h] | Papp (MDR1) [×10⁻⁶ cm/s] | fraction unbound at 2.5 µM [7] | Drug uptake [9] [nmol/g] | Ki [10] [µM] | fold change (FC) (Rattus norvegicus [11]) | fraction unbound at 2.5 µM [12] | Kp at 8 h [13] | Vd [14] [L/kg] | clearance [15] [mL/min/kg] | Ki (Protein O-GlcNAcase [19]) [µM] | EC50 (Protein O-GlcNAcase [20]) [µM] | other results
1 | CNC1=N[C@@H]2C[C@H](O)[C@@H](C(F)F)O[C@@H]2S1 | 74.7 | 1.9 | 1.66 | 24 | 0.88 | 0.289 | > 10 | 1.8 | > 0.99 | 2.22 | 2.23 | 30.4 |  |  | AUC [3]: 53.87 nM·h/g; fold change (FC) (Rattus norvegicus [4]): 19.68; fold change (FC) (Rattus norvegicus [5]): 2.69; Tmax [8]: 8 h
2 | CNC1=N[C@@H]2[C@H](F)[C@H](O)[C@@H](CF)O[C@@H]2S1 | 60.5 | 2.96 |  | 26 | > 0.99 |  | > 10 |  | > 0.99 |  |  |  | 0.035 | 0.328 | Vd [16]: 0.85 L/kg; half-life [17]: 1.18 h; clearance [18]: 14.4 mL/min/kg
3 | CCNC1=N[C@@H]2[C@@H](O)[C@H](O)[C@@H](CF)O[C@@H]2S1 | 102 | 1.77 | 2.39 | 6.1 | 0.98 | 0.228 |  | 1.84 | 0.87 | 1.49 | 3.8 | 37.4 | 0.02 | 0.176 | IC50 [21]: > 30 µM; IC50 (Cytochrome P450 2D6): > 50 µM; IC50 [22]: > 30 µM; IC50 (Cytochrome P450 2C9): > 50 µM; IC50 [23]: > 30 µM; IC50 (Cytochrome P450 3A4): > 50 µM; EC50 [24]: > 30 µM; Drug uptake [25]: 0.047 nmol/g; fold change (FC) (Rattus norvegicus [26]): 1.74; Kp at 24 h [27]: ≥ 18.7

— ChEMBL document CHEMBL4354805, “Discovery of MK-8719, a Potent O-GlcNAcase Inhibitor as a Potential Treatment for Tauopathies” (J Med Chem, 2019)
